# Data reported in PubChem BioAssay (NCI).
#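 Step 1: Grow cells in 96-well plates. Step 2: Expose to compound for 48 hours at 5 concentrations. Step 3: Interpolate endpoints linearly; if unreached, use highest concentration. GI50: concentration for 50% inhibition of growth. At the TGI there is no net growth.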
# Tested on: HOP-18 NSCLC
# Experiment: NCI anticancer screen, dose series, 48 h
row,SMILES,TGI [µM]
1,COC(=O)CC(c1ccccc1)C1(c2ccccc2)SCCS1 (configuration not stated),> 290
2,CC(=O)NNc1nc(C)c(C(=O)/C=C/c2ccc(NC(C)=O)cc2)s1,> 100
3,c1ccc(NCn2cnc3ccccc32)cc1,> 100
4,N#C/C(=C\c1cccc(Cl)c1Cl)c1ccccc1,> 90.4
5,C/C(=N/Nc1ccc([N+](=O)[O-])cc1[N+](=O)[O-])C(CC(C(=O)NCc1ccccc1)/C(C)=N\Nc1ccc([N+](=O)[O-])cc1[N+](=O)[O-])C(=O)NCc1ccccc1 (configuration not stated),9.48
6,COc1ccc(OC)c(N2CC(N)C2=O)c1 (configuration not stated),> 100
7,O=C(/C=C/c1ccc([N+](=O)[O-])cc1)c1ccc(NCc2nc3ccccc3[nH]2)cc1,31.3
8,Cc1cccc(C)c1NC(=O)CCCC(=O)C1/C(=N/NC(=O)CC#N)CCC/C1=N\NC(=O)CC#N (configuration not stated),> 100
9,CN(C)CC1CC/C(=C\c2ccc(O)cc2)C1=O (configuration not stated),15.9
10,O=C1C=CC(=O)c2nc3c(cc21)CCC3,39.8
11,O=S(=O)(N/N=C/c1cccc(/C=N/NS(=O)(=O)c2ccccc2)c1)c1ccccc1,> 100
12,CCCCN(CCCC)C(=O)C(=O)C(C(=O)c1ccc(OC)cc1)c1ccc(OC)cc1 (configuration not stated),> 100
13,COc1ccc(C)cc1-c1cc(Sc2ccccc2)c(-c2cc(C)ccc2OC)o1,> 31.6
14,CN(C)CCn1c2c3ccccc3ccc2c2oc(=O)c3ccccc3c21,35.3

# Tested on: SN12K1 renal
# Experiment: NCI anticancer screen, dose series, 48 h
row,SMILES,TGI [µM]
1,CN(C)CC1CC/C(=C\c2ccc(O)cc2)C1=O (configuration not stated),3.4

# Tested on: T-47D breast
# Experiment: NCI anticancer screen, dose series, 48 h
row,SMILES,TGI [µM]
1,CN(C)CC1CC/C(=C\c2ccc(O)cc2)C1=O (configuration not stated),5.34

# Tested on: RXF-631 renal
# Experiment: NCI anticancer screen, dose series, 48 h
SMILES,TGI [µM],GI50 [µM]
COC(=O)CC(c1ccccc1)C1(c2ccccc2)SCCS1 (configuration not stated),> 290,
CC(=O)NNc1nc(C)c(C(=O)/C=C/c2ccc(NC(C)=O)cc2)s1,> 100,
c1ccc(NCn2cnc3ccccc32)cc1,> 100,
N#C/C(=C\c1cccc(Cl)c1Cl)c1ccccc1,> 100,
C/C(=N/Nc1ccc([N+](=O)[O-])cc1[N+](=O)[O-])C(CC(C(=O)NCc1ccccc1)/C(C)=N\Nc1ccc([N+](=O)[O-])cc1[N+](=O)[O-])C(=O)NCc1ccccc1 (configuration not stated),20,
COc1ccc(OC)c(N2CC(N)C2=O)c1 (configuration not stated),> 100,
O=C(/C=C/c1ccc([N+](=O)[O-])cc1)c1ccc(NCc2nc3ccccc3[nH]2)cc1,19.7,
Cc1cccc(C)c1NC(=O)CCCC(=O)C1/C(=N/NC(=O)CC#N)CCC/C1=N\NC(=O)CC#N (configuration not stated),> 100,
O=c1ccc2ccccc2cc1[O-].O=c1ccc2ccccc2cc1[O-].[O]=[U+2]=[O],41.6,11.1
O=C1C=CC(=O)c2nc3c(cc21)CCC3,> 100,
O=S(=O)(N/N=C/c1cccc(/C=N/NS(=O)(=O)c2ccccc2)c1)c1ccccc1,> 100,
CCCCN(CCCC)C(=O)C(=O)C(C(=O)c1ccc(OC)cc1)c1ccc(OC)cc1 (configuration not stated),> 100,
C=C(C)CCOC(c1ccccc1)(c1ccccc1)c1ccccc1,> 100,
COc1ccc(C)cc1-c1cc(Sc2ccccc2)c(-c2cc(C)ccc2OC)o1,> 31.6,
CN(C)CCn1c2c3ccccc3ccc2c2oc(=O)c3ccccc3c21,31.5,

# Tested on: LXFL 529 NSCLC
# Experiment: NCI anticancer screen, dose series, 48 h
SMILES,TGI [µM],GI50 [µM]
COC(=O)CC(c1ccccc1)C1(c2ccccc2)SCCS1 (configuration not stated),> 290,
c1ccc(NCn2cnc3ccccc32)cc1,> 100,
N#C/C(=C\c1cccc(Cl)c1Cl)c1ccccc1,> 100,
C/C(=N/Nc1ccc([N+](=O)[O-])cc1[N+](=O)[O-])C(CC(C(=O)NCc1ccccc1)/C(C)=N\Nc1ccc([N+](=O)[O-])cc1[N+](=O)[O-])C(=O)NCc1ccccc1 (configuration not stated),23.6,
O=C(/C=C/c1ccc([N+](=O)[O-])cc1)c1ccc(NCc2nc3ccccc3[nH]2)cc1,8.61,
Cc1cccc(C)c1NC(=O)CCCC(=O)C1/C(=N/NC(=O)CC#N)CCC/C1=N\NC(=O)CC#N (configuration not stated),> 100,
CN(C)CC1CC/C(=C\c2ccc(O)cc2)C1=O (configuration not stated),3.45,
O=c1ccc2ccccc2cc1[O-].O=c1ccc2ccccc2cc1[O-].[O]=[U+2]=[O],51.6,16.8
O=C1C=CC(=O)c2nc3c(cc21)CCC3,29,
O=S(=O)(N/N=C/c1cccc(/C=N/NS(=O)(=O)c2ccccc2)c1)c1ccccc1,> 100,
CCCCN(CCCC)C(=O)C(=O)C(C(=O)c1ccc(OC)cc1)c1ccc(OC)cc1 (configuration not stated),> 100,
C=C(C)CCOC(c1ccccc1)(c1ccccc1)c1ccccc1,> 100,
COc1ccc(C)cc1-c1cc(Sc2ccccc2)c(-c2cc(C)ccc2OC)o1,> 31.6,
CN(C)CCn1c2c3ccccc3ccc2c2oc(=O)c3ccccc3c21,17.2,

# Tested on: M19-MEL melanoma
# Experiment: NCI anticancer screen, dose series, 48 h
row,SMILES,TGI [µM]
1,COC(=O)CC(c1ccccc1)C1(c2ccccc2)SCCS1 (configuration not stated),> 290
2,CC(=O)NNc1nc(C)c(C(=O)/C=C/c2ccc(NC(C)=O)cc2)s1,> 100
3,c1ccc(NCn2cnc3ccccc32)cc1,> 100
4,N#C/C(=C\c1cccc(Cl)c1Cl)c1ccccc1,> 100
5,C/C(=N/Nc1ccc([N+](=O)[O-])cc1[N+](=O)[O-])C(CC(C(=O)NCc1ccccc1)/C(C)=N\Nc1ccc([N+](=O)[O-])cc1[N+](=O)[O-])C(=O)NCc1ccccc1 (configuration not stated),23.9
